Laboratory results as given in patent publication US6737383B1, “Herbicidal oxadiazolidines” (priority 1999, dated 2004).

Legend:
[1] = test system: winter wheat; experiment: Test E winter wheat; format: in vivo, Triticum aestivum; details: Postemergence; for Wheat (winter) plant response rating: Rate 250 g/ha
Method in brief: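 Visually scored herbicidal effect relative to untreated plants, taken ~21 to 28 days post-application; compound in solvent with surfactant; postemergence sprays at the 1- to 4-leaf stage.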

[2] = test system: wild oat; experiment: Test E wild oat; format: in vivo, Avena fatua; details: Preemergence; for Wild oat plant response rating (0 to 100 scale): Rate 250 g/ha
[3] = test system: morningglory; experiment: Test B pre/postemergence morningglory; format: in vivo, Ipomoea hederacea; details: for Morningglory plant response rating (0 to 10 scale): 0 is no effect
Method in brief: (§1)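 Response is a visual 0-to-10 score relative to untreated plants, where 0 means no effect and 10 means complete control, taken twelve to sixteen days after application. Treatments went onto soil at planting and onto foliage of 1- to 4-leaf plants, using a surfactant-containing non-phytotoxic solvent.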

[4] = test system: blackgrass; experiment: Test E blackgrass; format: in vivo, Alopecurus myosuroides; details: Preemergence; for Blackgrass plant response rating (0 to 100 scale): Rate 250 g/ha
[5] = test system: winter wheat; experiment: Test E winter wheat; format: in vivo, Triticum aestivum; details: Preemergence; for Wheat (winter) plant response rating (0 to 100 scale): Rate 250 g/ha
[6] = test system: Italian ryegrass; experiment: Test E Italian ryegrass; format: in vivo, Lolium multiflorum; details: Preemergence; for I. Ryegrass plant response rating (0 to 100 scale): Rate 250 g/ha
[7] = test system: pigweed; experiment: Test B pre/postemergence pigweed; format: in vivo, Amaranthus retroflexus; details: for Redroot pigweed plant response rating (0 to 10 scale): 0 is no effect
Method in brief: as §1

[8] = test system: green foxtail; experiment: Test E green foxtail; format: in vivo, Setaria viridis; details: Preemergence; for Green foxtail plant response rating (0 to 100 scale): Rate 250 g/ha
[9] = test system: giant foxtail; experiment: Test B pre/postemergence giant foxtail; format: in vivo, Setaria faberii; details: for Giant foxtail plant response rating (0 to 10 scale): 0 is no effect
Method in brief: as §1

[10] = test system: winter barley; experiment: Test E winter barley; format: in vivo, Hordeum vulgare; details: Preemergence; for Barley (winter) plant response rating (0 to 100 scale): Rate 250 g/ha
[11] = Rate 1000 g/ha, 0 to 100 scale where 0 is no effect and 100 is complete control
[12] = 0 to 100 scale where 0 is no effect and 100 is complete control
[13] = Rate 500 g/ha, 0 to 100 scale (0 no effect, 100 complete control)
[14] = Rate 1000 g/ha, 0 to 100 scale, 0 no effect, 100 complete control
[15] = Preemergence, Rate 62 g/ha, scale of 0 to 10 where 0 is no effect and 10 is complete control
[16] = Preemergence, Rate 250 g/ha, scale of 0 to 10 where 0 is no effect and 10 is complete control
[17] = Preemergence, Rate 500 g/ha, scale of 0 to 10 where 0 is no effect and 10 is complete control
[18] = Rate 62 g/ha, Postemergence, scale 0 to 10, 0 no effect, 10 complete control
[19] = Rate 125 g/ha, Postemergence, scale of 0 to 10 where 0 is no effect and 10 is complete control
[20] = Rate 125 g/ha, Preemergence, scale of 0 to 10 where 0 is no effect and 10 is complete control
[21] = Rate 250 g/ha, Postemergence, scale of 0 to 10 where 0 is no effect and 10 is complete control
[22] = Rate 500 g/ha, Postemergence, scale 0 to 10, 0 no effect, 10 complete control
[23] = Preemergence, Rate 125 g/ha, 10 is complete control
[24] = Preemergence, Rate 250 g/ha, scale 0 to 10, 0 is no effect, 10 is complete control
[25] = Rate 62 g/ha, Postemergence, scale of 0 to 10 where 0 is no effect and 10 is complete control
[26] = Rate 125 g/ha, Postemergence, scale 0 to 10
[27] = Rate 500 g/ha, Postemergence, scale 0 to 10
[28] = Rate 62 g/ha, 0 to 100 scale, 0 no effect, 100 complete control
[29] = Rate 125 g/ha, 0 to 100 scale (0 no effect, 100 complete control)
[30] = Postemergence, Rate 125 g/ha, scale of 0 to 10 where 0 is no effect and 10 is complete control
[31] = Preemergence, Rate 62 g/ha, scale 0 to 10 (0 no effect, 10 complete control)
[32] = Preemergence, Rate 500 g/ha, scale 0 to 10 (0 no effect, 10 complete control)
[33] = Rate 250 g/ha, Postemergence, scale 0 to 10, 0 is no effect, 10 is complete control

`CC(C)N(C(=O)n1oc(=O)n(C2CCCC2)c1=O)c1ccc(Cl)cc1` [Compound 282] was tested, and the “Plant response rating, Wheat (winter)” value [1, 11] was 50, the “Wheat (winter) plant response rating” value [1, 12] was 20 and the “Plant response rating, Wheat (winter)” value ([1]; Rate 500 g/ha, 0 to 100 scale, 0 is no effect, 100 is complete control) was 30. For the same compound, the “Wild oat plant response rating (0 to 100 scale)” value (from here on “Wild oat plant response rating”) [2] was 70, the “Plant response rating, Wild oat” value [2, 13] was 70 and the “Plant response rating, Wild oat” value [2, 14] was 80. The “Morningglory plant response rating” value [3, 15] was 0, the “Morningglory plant response rating” value [3, 16] was 0 and the “Plant response rating, Morningglory” value [3, 17] was 0. The “Morningglory plant response rating” value [3, 18] was 6, the “Morningglory plant response rating” value [3, 19] was 6 and the “Morningglory plant response rating” value [3, 20] was 0. The “Plant response rating, Morningglory” value [3, 21] was 7, the “Morningglory plant response rating” value [3, 22] was 9 and the “Blackgrass plant response rating (0 to 100 scale)” value (“Blackgrass plant response rating” for short) [4] was 60. The “Plant response rating, Blackgrass” value [4, 13] was 60, the “Plant response rating, Blackgrass” value [4, 14] was 70 and the “Wheat (winter) plant response rating (0 to 100 scale)” value (shortened to “Wheat … (0 to 100 scale)”) [5] was 60. The “Plant response rating, Wheat (winter)” value [5, 13] was 60, the “Plant response rating, Wheat (winter)” value [5, 14] was 70 and the “I. Ryegrass plant response rating (0 to 100 scale)” value (“I. Ryegrass plant response rating” below) [6] was 70. The “Plant response rating, I. Ryegrass” value [6, 13] was 70, the “Plant response rating, I. Ryegrass” value [6, 14] was 70 and the “Redroot pigweed plant response rating” value [7, 15] was 1. The “Redroot pigweed plant response rating” value [7, 16] was 7, the “Plant response rating, Redroot pigweed” value [7, 17] was 9 and the “Redroot pigweed plant response rating” value [7, 18] was 4. For the same compound, the “Redroot pigweed plant response rating” value [7, 19] was 6, the “Redroot pigweed plant response rating” value [7, 20] was 6 and the “Plant response rating, Redroot pigweed” value [7, 21] was 7. For the same compound, the “Redroot pigweed plant response rating” value [7, 22] was 8, the “Green foxtail plant response rating (0 to 100 scale)” value (shortened to “Green foxtail plant response rating”) [8] was 80 and the “Plant response rating, Green foxtail” value [8, 13] was 100. The “Plant response rating, Green foxtail” value [8, 14] was 100, the “Giant foxtail plant response rating” value [9, 15] was 8 and the “Giant foxtail plant response rating” value [9, 16] was 10. The “Plant response rating, Giant foxtail” value [9, 17] was 10, the “Giant foxtail plant response rating” value [9, 18] was 0 and the “Giant foxtail plant response rating” value [9, 19] was 0. The “Giant foxtail plant response rating” value [9, 20] was 8, the “Plant response rating, Giant foxtail” value [9, 21] was 0 and the “Giant foxtail plant response rating” value [9, 22] was 2. For the same compound, the “Barley (winter) plant response rating (0 to 100 scale)” value (shortened to “Barley (winter) plant response rating”) [10] was 50, the “Plant response rating, Barley (winter)” value [10, 13] was 50 and the “Plant response rating, Barley (winter)” value [10, 14] was 70.

With `Cc1ccccc1-n1c(=O)on(C(=O)N(c2ccccc2F)C(C)C)c1=O` [Compound 204] the “Plant response rating, Wheat (winter)” value ([1]; Rate 1000 g/ha, 0 to 100 scale, 0 is no effect and 100 is complete control) was 30, the “Wild oat plant response rating” value [2] was 50 and the “Plant response rating, Wild oat” value [2, 11] was 50. The “Morningglory plant response rating” value [3, 15] was 0, the “Morningglory plant response rating (0 to 10 scale)” value [3, 23] was 0 and the “Morningglory plant response rating” value [3, 24] was 0. The “Plant response rating, Morningglory” value [3, 17] was 0, the “Morningglory plant response rating” value [3, 25] was 3 and the “Morningglory plant response rating” value [3, 26] was 3. The “Plant response rating (0 to 10; 0 is no effect, 10 is complete control), Morningglory” value ([3]; Rate 250 g/ha, Postemergence) was 3, the “Morningglory plant response rating” value [3, 27] was 8 and the “Blackgrass plant response rating” value [4] was 55. For the same compound, the “Plant response rating, Blackgrass” value [4, 11] was 95, the “Wheat … (0 to 100 scale)” value [5] was 30 and the “Plant response rating, Wheat (winter)” value [5, 11] was 50. For the same compound, the “I. Ryegrass plant response rating” value [6] was 50, the “Plant response rating, I. Ryegrass” value [6, 11] was 65 and the “Redroot pigweed plant response rating” value [7, 15] was 0. The “Redroot pigweed plant response rating (0 to 10 scale)” value [7, 23] was 0, the “Redroot pigweed plant response rating” value [7, 24] was 0 and the “Plant response rating, Redroot pigweed” value [7, 17] was 0. The “Redroot pigweed plant response rating” value [7, 25] was 0, the “Redroot pigweed plant response rating” value [7, 26] was 0 and the “Plant response rating (0 to 10; 0 is no effect, 10 is complete control), Redroot pigweed” value ([7]; Rate 250 g/ha, Postemergence) was 4. For the same compound, the “Redroot pigweed plant response rating” value [7, 27] was 7, the “Green foxtail plant response rating” value [8] was 75 and the “Plant response rating, Green foxtail” value [8, 11] was 100. For the same compound, the “Giant foxtail plant response rating” value [9, 15] was 7, the “Giant foxtail plant response rating (0 to 10 scale)” value [9, 23] was 9 and the “Giant foxtail plant response rating” value [9, 24] was 10. The “Plant response rating, Giant foxtail” value [9, 17] was 10, the “Giant foxtail plant response rating” value [9, 25] was 0 and the “Giant foxtail plant response rating” value [9, 26] was 0. The “Plant response rating (0 to 10; 0 is no effect, 10 is complete control), Giant foxtail” value ([9]; Rate 250 g/ha, Postemergence) was 0, the “Giant foxtail plant response rating” value [9, 27] was 3 and the “Barley (winter) plant response rating” value [10] was 50. The “Plant response rating, Barley (winter)” value [10, 11] was 30.

With `CC(C)N(C(=O)n1oc(=O)n(CCCl)c1=O)c1ccc(F)cc1` [Compound 148] the “Plant response rating, Wheat (winter)” value ([1]; Rate 62 g/ha, 0 to 100 scale) was 0, the “Plant response rating, Wheat (winter)” value ([1]; Rate 125 g/ha, 0 to 100 scale) was 10 and the “Wheat (winter) plant response rating” value [1, 12] was 80. The “Plant response rating, Wild oat” value [2, 28] was 10, the “Plant response rating, Wild oat” value [2, 29] was 15 and the “Wild oat plant response rating” value [2] was 40. The “Morningglory plant response rating” value [3, 30] was 3, the “Morningglory plant response rating” value [3, 31] was 0 and the “Morningglory plant response rating (0 to 10 scale)” value [3, 23] was 0. The “Morningglory plant response rating” value [3, 24] was 0, the “Morningglory plant response rating” value [3, 32] was 1 and the “Morningglory plant response rating” value [3, 25] was 3. The “Plant response rating, Morningglory” value [3, 33] was 3, the “Morningglory plant response rating” value [3, 27] was 5 and the “Plant response rating, Blackgrass” value [4, 28] was 20. The “Plant response rating, Blackgrass” value [4, 29] was 50, the “Blackgrass plant response rating” value [4] was 50 and the “Plant response rating, Wheat (winter)” value [5, 28] was 0. The “Plant response rating, Wheat (winter)” value [5, 29] was 0, the “Wheat … (0 to 100 scale)” value [5] was 0 and the “Plant response rating, I. Ryegrass” value [6, 28] was 20. For the same compound, the “Plant response rating, I. Ryegrass” value [6, 29] was 20, the “I. Ryegrass plant response rating” value [6] was 30 and the “Redroot pigweed plant response rating” value [7, 30] was 2. The “Redroot pigweed plant response rating” value [7, 31] was 7, the “Redroot pigweed plant response rating (0 to 10 scale)” value [7, 23] was 9 and the “Redroot pigweed plant response rating” value [7, 24] was 9. The “Redroot pigweed plant response rating” value [7, 32] was 10, the “Redroot pigweed plant response rating” value [7, 25] was 2 and the “Redroot pigweed plant response rating” value [7, 27] was 5. For the same compound, the “Plant response rating, Green foxtail” value [8, 28] was 20, the “Plant response rating, Green foxtail” value [8, 29] was 30 and the “Green foxtail plant response rating” value [8] was 55. For the same compound, the “Giant foxtail plant response rating” value [9, 30] was 8, the “Giant foxtail plant response rating” value [9, 31] was 7 and the “Giant foxtail plant response rating (0 to 10 scale)” value [9, 23] was 9. For the same compound, the “Giant foxtail plant response rating” value [9, 24] was 9, the “Giant foxtail plant response rating” value [9, 32] was 10 and the “Giant foxtail plant response rating” value [9, 25] was 5. For the same compound, the “Plant response rating, Giant foxtail” value [9, 33] was 8, the “Giant foxtail plant response rating” value [9, 27] was 9 and the “Plant response rating, Barley (winter)” value [10, 28] was 10. For the same compound, the “Plant response rating, Barley (winter)” value [10, 29] was 10 and the “Barley (winter) plant response rating” value [10] was 10.
